Patent US12116358B2, “Substituted indoles and methods of use thereof” (EPIZYME, INC., priority 2018, dated 2024)
Where two headings read alike, the source gives them in different places.

Assays:
SETD2(1434-1711) = target: T1, SETD2(1434-1711) (Homo sapiens, UniProt Q9BYW2); experiment: SETD2 (1434-1711) assay; type: biochemical; settings: read-out: SETD2 (1434-1711)
T1 construct: SETD2 (1434-1711) Assay; catalogue N/A
T1 sequence (Q9BYW2 1434-1711): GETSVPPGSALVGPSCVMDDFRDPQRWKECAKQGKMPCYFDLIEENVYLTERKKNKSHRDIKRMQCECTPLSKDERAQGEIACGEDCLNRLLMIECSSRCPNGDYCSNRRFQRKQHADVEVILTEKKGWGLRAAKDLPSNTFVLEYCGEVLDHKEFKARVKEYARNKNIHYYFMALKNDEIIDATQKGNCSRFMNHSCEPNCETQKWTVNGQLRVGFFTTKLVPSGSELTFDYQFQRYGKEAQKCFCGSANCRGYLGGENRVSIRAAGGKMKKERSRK

H3K36me3 in A549 cells = experiment: In-Cell Western (ICW) assay of SETD2 inhibitors (A549 assay); type: cell-based, human; settings: A549 cells, read-out: SETD2 A549
How it was run: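 H3K36me3 In-Cell Western: cells exposed to compound for 3 days at 4,000 cells/well, 37° C. DRAQ5 (1:1000) marked cell number, with 700/800-channel Licor read-out.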

| IC50 (SETD2(1434-1711)) [µM] | IC50 (H3K36me3 in A549 cells) [µM] | IC50 (H3K36me3 in A549 cells; Homo sapiens) [µM] | Structure (SMILES) |
| --- | --- | --- | --- |
| 1.5 | > 2 |  | Cc1ccc(F)c2cc(C(=O)NC3CCCC(N4CCN(C(=O)OC5CCOCC5)CC4)C3)[nH]c12 (centres unmarked) [compound 1000] |
| 1.2 |  | 1.8 | Cc1ccc(F)c2cc(C(=O)N[C@@H]3CCC[C@H](N4CCC(N(C)C)C4=O)C3)[nH]c12 (some centres unmarked) [compound 1002] |
| 0.03 |  | 0.2 | Cc1ccc(F)c2cc(C(=O)N[C@@H]3CCC[C@H](c4ccncn4)C3)[nH]c12 [compound 1003] |
| 1 |  | 1.8 | CC(=O)N1CCN([C@@H]2C[C@H](NC(=O)c3cc4c(F)ccc(C)c4[nH]3)CN(C)C2)CC1 [compound 1006] |
| 0.006 |  | 0.02 | CC(=O)N1CCC([C@H]2CCC[C@@H](NC(=O)c3cc4c(F)ccc(C)c4[nH]3)C2)CC1 [compound 1007] |
| 0.3 |  | 0.9 | Cc1nc([C@H]2CCC[C@@H](NC(=O)c3cc4c(F)ccc(C)c4[nH]3)C2)no1 [compound 1011] |
| 0.706 |  | > 2 | Cc1ccc(F)c2cc(C(=O)N[C@@H]3CCC[C@H](c4nccc(=O)[nH]4)C3)[nH]c12 [compound 1013] |
| 0.2 |  | 0.7 | Cc1ccc(F)c2cc(C(=O)N[C@@H]3CCC[C@H](c4noc(CN(C)C)n4)C3)[nH]c12 [compound 1014] |
| 0.03 | 0.07 |  | CC(=O)N1CCN(C2CCCC(NC(=O)c3cc4c(F)ccc(C)c4[nH]3)C2)CC1C(F)(F)F (centres unmarked) [compound 1018] |
| 0.05 | 0.09 |  | CC(=O)N1CCN(C2CCCC(NC(=O)c3cc4c(F)ccc(C)c4[nH]3)C2)C(C)C1 (centres unmarked) [compound 1021] |
| 2.6 | > 2 |  | CC(=O)N1CCN(C2CCCC(NC(=O)c3cc4c(F)ccc(C)c4[nH]3)C2)CC1CO (centres unmarked) [compound 1022] |
| 0.05 |  | 0.06 | CC(=O)N1CCN([C@H]2CCC[C@@H](NC(=O)c3cc4c(F)ccc(C)c4[nH]3)C2)C2(CC2)C1 [compound 1024] |
| 0.02 |  | 0.03 | CC(=O)N1CCN([C@H]2CCC[C@@H](NC(=O)c3cc4c(F)ccc(C)c4[nH]3)C2)CC12CC2 [compound 1025] |
| 0.2 |  | 1.4 | Cc1ccc(F)c2cc(C(=O)N[C@@H]3CCC[C@H](N4CCn5nc(C(F)(F)F)nc5C4)C3)[nH]c12 [compound 1031] |
| 0.2 |  | 0.4 | CC(=O)N1CCN(C[C@H]2CCC[C@@H](NC(=O)c3cc4c(F)ccc(C)c4[nH]3)C2)CC1 [compound 1032] |
| 0.03 |  | 0.3 | Cc1ccc(F)c2cc(C(=O)N[C@@H]3CCC[C@H](N4CCN(C(=O)NC5CCOCC5)CC4)C3)[nH]c12 [compound 1037] |
| 0.02 |  | 0.2 | COCC(=O)N(C)[C@@H]1CCN([C@H]2CCC[C@@H](NC(=O)c3cc4c(F)ccc(C)c4[nH]3)C2)C1 [compound 1042] |
| 0.008 |  | 0.04 | COCC(=O)N(C)[C@H]1CCN([C@H]2CCC[C@@H](NC(=O)c3cc4c(F)ccc(C)c4[nH]3)C2)C1 [compound 1043] |
| 0.02 |  | 0.02 | Cc1ccc(F)c2cc(C(=O)N[C@@H]3CCC[C@H](N4CCN5C(=O)CCC[C@@H]5C4)C3)[nH]c12 [compound 1044] |
| 0.008 |  | 0.03 | Cc1ccc(F)c2cc(C(=O)N[C@@H]3CCC[C@H](N4CCN5C(=O)COCC5C4)C3)[nH]c12 (some centres unmarked) [compound 1045] |
| 2.8 | > 2 |  | Cc1ccc(F)c2cc(C(=O)NC3CCCC(N4CCN5C(=O)CN(C)C(=O)C5C4)C3)[nH]c12 (centres unmarked) [compound 1046] |
| 0.02 |  | 0.07 | Cc1ccc(F)c2cc(C(=O)N[C@@H]3CCC[C@H](N4CCn5c(cccc5=O)C4)C3)[nH]c12 [compound 1048] |
| 0.05 |  | 0.1 | Cc1ccc(F)c2cc(C(=O)N[C@@H]3CCC[C@H](N4CCn5c(nccc5=O)C4)C3)[nH]c12 [compound 1049] |
| 1 | > 2 |  | Cc1ccc(F)c2cc(C(=O)NC3CCCC(N4CCN5C(=O)NCC5C4)C3)[nH]c12 (centres unmarked) [compound 1050] |
| 0.01 | 0.03 |  | Cc1ccc(F)c2cc(C(=O)NC3CCCC(N4CCN5C(=O)N(C)CC5C4)C3)[nH]c12 (centres unmarked) [compound 1051] |
| 0.02 | 0.05 |  | Cc1ccc(F)c2cc(C(=O)NC3CCCC(N4CCC(N(C)C(=O)C(C)(C)O)C4)C3)[nH]c12 (centres unmarked) [compound 1052] |
| 0.03 | 0.4 |  | CCN(C(=O)CO)C1CCN(C2CCCC(NC(=O)c3cc4c(F)ccc(C)c4[nH]3)C2)C1 (centres unmarked) [compound 1053] |
| 0.01 |  | 0.09 | CCN([C@@H]1CCN([C@H]2CCC[C@@H](NC(=O)c3cc4c(F)ccc(C)c4[nH]3)C2)C1)S(C)(=O)=O [compound 1054] |

| IC50 (SETD2(1434-1711)) [µM] | IC50 (H3K36me3 in A549 cells) [µM] | IC50 (H3K36me3 in A549 cells; Homo sapiens) [µM] | Structure (SMILES) |
| --- | --- | --- | --- |
| 0.009 | 0.005 |  | CCC1CN(C2CCCC(NC(=O)c3cc4c(F)ccc(C)c4[nH]3)C2)CCN1C(C)=O (centres unmarked) [compound 1055] |
| 0.09 |  | 0.3 | Cc1ccc(F)c2cc(C(=O)N[C@@H]3CCC[C@H](N4CCn5c(nn(C)c5=O)C4)C3)[nH]c12 [compound 1056] |
| 0.04 |  | 0.1 | Cc1ccc(F)c2cc(C(=O)N[C@@H]3CCC[C@H](N4CCn5c(cn(C)c5=O)C4)C3)[nH]c12 [compound 1057] |
| 0.04 |  | 0.6 | Cc1ccc(F)c2cc(C(=O)N[C@@H]3CCC[C@H](N4CCn5c(n[nH]c5=O)C4)C3)[nH]c12 [compound 1058] |
| 0.02 |  | 0.6 | Cc1ccc(F)c2cc(C(=O)N[C@@H]3CCC[C@H](N4CCn5c(c[nH]c5=O)C4)C3)[nH]c12 [compound 1059] |
| 0.02 |  | 0.3 | Cc1ccc(F)c2cc(C(=O)N[C@@H]3CCC[C@H](N4CC[C@H](N(CCO)S(C)(=O)=O)C4)C3)[nH]c12 [compound 1061] |
| 0.01 |  | 0.01 | CC(=O)N1[C@H](C)CN([C@H]2CCC[C@@H](NC(=O)c3cc4c(F)ccc(C)c4[nH]3)C2)C[C@H]1C [compound 1062] |
| 2.9 |  | > 2 | COCC(=O)N(C)[C@H]1CCN([C@@H]2CCC[C@@H](NC(=O)c3cc4c(F)ccc(C)c4[nH]3)C2)C1 [compound 1063] |
| 2.3 |  | > 2 | Cc1ccc(F)c2cc(C(=O)N[C@@H]3CCC[C@@H](c4ccncn4)C3)[nH]c12 [compound 1064] |
| 9.1 |  | > 2 | Cc1nc([C@@H]2CCC[C@H](NC(=O)c3cc4c(F)ccc(C)c4[nH]3)C2)no1 [compound 1065] |
| 5.5 | > 2 |  | Cc1ccc(F)c2cc(C(=O)NC3CCCC(N4CCn5nc(C(F)(F)F)nc5C4)C3)[nH]c12 (centres unmarked) [compound 1066] |
| 0.9 | 1.2 |  | Cc1ccc(F)c2cc(C(=O)NC3CCCC(N4CCN5C(=O)COCC5C4)C3)[nH]c12 (centres unmarked) [compound 1067] |
| 0.1 |  | 0.7 | Cc1ccc(F)c2cc(C(=O)N[C@@H]3CCC[C@H](c4cc(=O)[nH]cn4)C3)[nH]c12 [compound 1068] |
| 0.01 |  | 0.01 | CC(=O)N1CCN([C@H]2CCC[C@@H](NC(=O)c3cc4c(F)ccc(C)c4[nH]3)C2)C[C@H]1C(F)(F)F [compound 1070] |
| 5.2 |  | > 2 | CC(=O)N1CCN([C@@H]2CCC[C@@H](NC(=O)c3cc4c(F)ccc(C)c4[nH]3)C2)C[C@@H]1C(F)(F)F [compound 1071] |
| 2.3 |  | > 2 | CC(=O)N1CCN([C@@H]2CCC[C@@H](NC(=O)c3cc4c(F)ccc(C)c4[nH]3)C2)C[C@H]1C(F)(F)F [compound 1072] |
| 4.5 |  | > 2 | CC(=O)N1CCN([C@@H]2CCC[C@@H](NC(=O)c3cc4c(F)ccc(C)c4[nH]3)C2)[C@@H](C)C1 [compound 1074] |
| 1.4 |  | 1.7 | CC(=O)N1CCN([C@@H]2CCC[C@@H](NC(=O)c3cc4c(F)ccc(C)c4[nH]3)C2)C[C@H]1CO [compound 1076] |
| > 10 |  | > 2 | CC(=O)N1CCN(C[C@@H]2CCC[C@H](NC(=O)c3cc4c(F)ccc(C)c4[nH]3)C2)CC1 [compound 1077] |
| 0.01 | 0.03 |  | Cc1ccc(F)c2cc(C(=O)NC3CCCC(N4CCN5C(=O)CCCC5C4)C3)[nH]c12 (centres unmarked) [compound 1078] |
| 0.3 |  | 1.3 | Cc1ccc(F)c2cc(C(=O)N[C@@H]3CCC[C@@H](N4CCN5C(=O)CCC[C@@H]5C4)C3)[nH]c12 [compound 1079] |
| 0.5 | 1.7 |  | Cc1ccc(F)c2cc(C(=O)NC3CCCC(N4CCN5C(=O)CCCC5C4)C3)[nH]c12 (centres unmarked) [compound 1080] |
| 0.6 |  | > 2 | Cc1ccc(F)c2cc(C(=O)N[C@@H]3CCC[C@@H](N4CCN5C(=O)NC[C@H]5C4)C3)[nH]c12 [compound 1082] |
| 0.02 | 0.05 |  | Cc1ccc(F)c2cc(C(=O)NC3CCCC(N4CCN5C(=O)NCC5C4)C3)[nH]c12 (centres unmarked) [compound 1083] |
| 0.1 | 0.5 |  | Cc1ccc(F)c2cc(C(=O)NC3CCCC(N4CCN5C(=O)NCC5C4)C3)[nH]c12 (centres unmarked) [compound 1084] |
| 0.03 |  | 0.1 | CC[C@H]1CN([C@H]2CCC[C@@H](NC(=O)c3cc4c(F)ccc(C)c4[nH]3)C2)CCN1C(C)=O [compound 1085] |
| 0.8 |  | > 2 | CC[C@H]1CN([C@@H]2CCC[C@@H](NC(=O)c3cc4c(F)ccc(C)c4[nH]3)C2)CCN1C(C)=O [compound 1086] |
